In US11174439B2, “Method to inhibit polymerization in a process water” (Ecolab USA, Inc., priority 2016, dated 2021):
Values joined by “and” are separate entries in the source; they are usually repeats but may differ in a detail not shown here. Equal entries are not always repeated.

Assay: Pygas-water partition coefficient determination (simulated pygas / de-ionized water, HPLC-MS)
Type: physicochemical
Details: for [HTMPO] (ppm) in Undiluted Phase, Average / [sBuPDA] (ppm) in Undiluted Phase, Average / [HTMPOH] (ppm) in Undiluted Phase, Average: average of 3 trials ± standard uncertainty; for [HTMPO] (ppm) in Undiluted Phase / [sBuPDA] (ppm) in Undiluted Phase / [HTMPOH] (ppm) in Undiluted Phase: individual trials 1-3; for [HTMPO] (ppm) in Undiluted Phase: inhibitor 1.0 wt % total; for Partition Ratio (pygas/aqueous): simulated pygas vs de-ionized water, ± standard uncertainty
Experimental: Pygas-water partition coefficients are determined by measuring the concentration of a polymerization inhibitor in a pygas-water mixture. In some embodiments, a pygas from an actual process water sample is used as the pygas in the determination; in some such embodiments, an actual process water is used. In other embodiments, a simulated pygas is formed and water is added to the simulated pygas for the determination. For purposes of providing measurements related to the disclosures herein, a simulated pygas consisting essentially of a mixture of toluene, styrene, cyclohexane, n-hexane, and dicyclopentadiene is employed. Partition coefficient is determined by mixing equal volumes of de-ionized water and simulated pygas, then adding a potential polymerization inhibitor at a concentration range of about 0.1 wt % to 5 wt %, in some embodiments, followed by a period of vigorous mixing, then a period of standing undisturbed to allow the phases to separate; the relative concentration of a species in each phase determines the partition coefficient. For purposes of partition coefficients recited herein, the test is conducted at a target inhibitor concentration of 1 wt % (10,000 ppm) followed by vigorous mixing for 30 minutes, followed by allowing the mixture to stand substantially unperturbed for 30 minutes. The pygas and aqueous phases that result in the unperturbed mixture are separated and concentration of the potential polymerization inhibitor in each phase is quantified, for example by high performance liquid chromatography coupled with mass spectrometry analysis (HPLC-MS). The partition ratio, or partition coefficient, of the potential polymerization inhibitor between the pygas and aqueous phases is then calculated according to the formula
[formula] where P is the partition coefficient, [I]pygas is the concentration of the potential polymerization inhibitor in the pygas phase, and [I]aqueous is the concentration of potential polymerization inhibitor in the aqueous phase.
The partition ratio of the polymerization inhibitor […]-2,2,6,6-tetramethylpiperidinyl-1-oxyl (HTMPO) between pygas and aqueous phases was determined by the following procedure. HTMPO was added to a mixture of equal volumes of de-ionized water and simulated pyrolysis gasoline (pygas). The simulated pygas consisted of a mixture of toluene, styrene, cyclohexane, n-hexane, and dicyclopentadiene. The amounts of inhibitor and liquid phases used were such that the inhibitor was present at a total concentration of 1.0 wt % based on the weight of the combined phases.
The system consisting of the inhibitor, pygas phase, and aqueous phase was vigorously stirred for thirty minutes, after which time it was allowed to sit undisturbed for an additional thirty minutes. The immiscible pygas and aqueous phases were then separated.
A stock solution of known concentration of HTMPO in acetonitrile was diluted with water/acetonitrile to give five different solutions at concentrations spanning an appropriate working range of a high performance liquid chromatograph (HPLC) coupled to a mass spectrometer with an electrospray ionization (ESI) source. The five dilute solutions were analyzed as standards using HPLC-MS, and the areas of the peaks corresponding to HTMPO in these solutions were used to construct a calibration curve of peak area vs. concentration (mass fraction, ppm).
The pygas phase of unknown concentration of HTMPO, separated from the aqueous phase in the first part of the experiment, was diluted with water/acetonitrile to give a solution whose concentration was within the range of the calibration curve. The dilute pygas solution was analyzed by HPLC-MS, and the concentration of HTMPO in this pygas solution was calculated by interpolation of its HTMPO peak area into the calibration curve. The concentration of HTMPO in the original, undiluted pygas phase was calculated by applying the dilution factor to the interpolated concentration of the diluted solution. […]

SMILES: CC1(C)CC(O)CC(C)(C)N1[O] [HTMPO, 4-hydroxy-2,2,6,6-tetramethylpiperidinyl-1-oxyl]
- [HTMPO] (ppm) in Undiluted Phase, Average (Aqueous Phase): 7410.8 ± 453.5 ppm
- [HTMPO] (ppm) in Undiluted Phase (Aqueous Phase): 7155.2 ppm and 7142.9 ppm and 7934.4 ppm
- Partition Ratio (pygas/aqueous) (HTMPO): 0.079 ± 0.008
- [HTMPO] (ppm) in Undiluted Phase, Average (Pygas Phase): 582.8 ± 47.0 ppm
- [HTMPO] (ppm) in Undiluted Phase (Pygas Phase, equal volumes de-ionized water and simulated pygas): 597.8 ppm and 530.2 ppm and 620.5 ppm

SMILES: CCC(C)Nc1ccc(NC(C)CC)cc1 (stereo not drawn) [sBuPDA, N,N′-di-sec-butyl-1,4-phenylenediamine]
- [sBuPDA] (ppm) in Undiluted Phase, Average (Aqueous Phase): 0.29 ± 0.03 ppm
- [sBuPDA] (ppm) in Undiluted Phase (Aqueous Phase): 0.29 ppm and 0.26 ppm and 0.32 ppm
- [sBuPDA] (ppm) in Undiluted Phase, Average (Pygas Phase): 4075 ± 161.6 ppm
- [sBuPDA] (ppm) in Undiluted Phase (Pygas Phase): 4218.2 ppm and 4109.2 ppm and 3900.2 ppm
- Partition Ratio (pygas/aqueous) (sBuPDA): 14000 ± 2000

SMILES: CC1(C)CC(O)CC(C)(C)N1O [HTMPOH, 1,4-dihydroxy-2,2,6,6-tetramethylpiperidine]
- [HTMPOH] (ppm) in Undiluted Phase, Average (Aqueous Phase): 2829.8 ± 79.0 ppm
- [HTMPOH] (ppm) in Undiluted Phase (Aqueous Phase): 2807.5 ppm and 2764.3 ppm and 2917.6 ppm
- Partition Ratio (pygas/aqueous) (HTMPOH): 0.0096 ± 0.0003
- [HTMPOH] (ppm) in Undiluted Phase, Average (Pygas Phase): 27.2 ± 0.6 ppm
- [HTMPOH] (ppm) in Undiluted Phase (Pygas Phase): 27.8 ppm and 26.6 ppm and 27.2 ppm
